Assay results as given in PubChem BioAssay AID1918999 (Molecular Pharmacology Branch, DTP, NCI, 2023).

Test system: 556581-035-R-J1-PDC complex spheroid growth
Experiment: Anticancer human tumor 556581-035-R-J1-PDC patient-derived ovarian carcinoma cell line growth inhibition [AhR]
Details: for IC50: curve of first compound; for viability, T/C: stronger effect = lower value
In short: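 Agents were dosed in half-log steps down from roughly clinical Cmax, or from 10 microM where Cmax was unknown, alone and with AhR antagonists. Read-out: percent test/control growth of tumor spheroids containing HUVEC and MSC stromal cells.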

[1] = second compound 0.1 µM, first compound 0.0316 µM
[2] = second compound 0.1 µM, first compound 0.1 µM
[3] = second compound 0.1 µM, first compound 0.316 µM
[4] = second compound 0.1 µM, first compound 1 µM
[5] = second compound 0.1 µM, first compound 3.16 µM
[6] = second compound 0.1 µM, first compound 10 µM
[7] = second compound 0.316 µM, first compound 0.0316 µM
[8] = second compound 0.316 µM, first compound 0.1 µM
[9] = second compound 0.316 µM, first compound 0.316 µM
[10] = second compound 0.316 µM, first compound 1 µM
[11] = second compound 0.316 µM, first compound 3.16 µM
[12] = second compound 0.316 µM, first compound 10 µM
[13] = second compound 1 µM, first compound 0.0316 µM
[14] = second compound 1 µM, first compound 0.1 µM
[15] = second compound 1 µM, first compound 0.316 µM
[16] = second compound 1 µM, first compound 1 µM
[17] = second compound 1 µM, first compound 3.16 µM
[18] = second compound 1 µM, first compound 10 µM
[19] = second compound 3.16 µM, first compound 0.0316 µM
[20] = second compound 3.16 µM, first compound 0.1 µM
[21] = second compound 3.16 µM, first compound 0.316 µM
[22] = second compound 3.16 µM, first compound 1 µM
[23] = second compound 3.16 µM, first compound 3.16 µM
[24] = second compound 3.16 µM, first compound 10 µM
[25] = second compound 10 µM, first compound 0.0316 µM
[26] = second compound 10 µM, first compound 0.1 µM
[27] = second compound 10 µM, first compound 0.316 µM
[28] = second compound 10 µM, first compound 1 µM
[29] = second compound 10 µM, first compound 3.16 µM
[30] = second compound 10 µM, first compound 10 µM
[31] = second compound 0.1 µM, first compound 0.00316 µM
[32] = second compound 0.1 µM, first compound 0.01 µM
[33] = second compound 0.316 µM, first compound 0.00316 µM
[34] = second compound 0.316 µM, first compound 0.01 µM
[35] = second compound 1 µM, first compound 0.00316 µM
[36] = second compound 1 µM, first compound 0.01 µM
[37] = second compound 3.16 µM, first compound 0.00316 µM
[38] = second compound 3.16 µM, first compound 0.01 µM
[39] = second compound 10 µM, first compound 0.00316 µM
[40] = second compound 10 µM, first compound 0.01 µM
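Wherever viability, T/C is given: compound exposure lasted 7 days; 100% = DMSO vehicle control growth.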

| SMILES | IC50 (second compound 0.1 µM) [nM] | IC50 (second compound 0.316 µM) [nM] | IC50 (second compound 1 µM) [nM] | IC50 (second compound 3.16 µM) [nM] | IC50 (second compound 10 µM) [nM] | viability, T/C [1] [%] | viability, T/C [2] [%] | viability, T/C [3] [%] | viability, T/C [4] [%] | viability, T/C [7] [%] | viability, T/C [8] [%] | viability, T/C [9] [%] | viability, T/C [10] [%] | viability, T/C [13] [%] | viability, T/C [14] [%] | viability, T/C [15] [%] | viability, T/C [16] [%] | viability, T/C [19] [%] | viability, T/C [20] [%] | viability, T/C [21] [%] | further results |
| --- | --- | --- | --- | --- | --- | --- | --- | --- | --- | --- | --- | --- | --- | --- | --- | --- | --- | --- | --- | --- | --- |
| CC(C)c1c(-c2ccccc2)nc2c(C#N)c[nH]n2c1=O + CC(CO)NC(=O)c1cc(-c2ccc(Cl)cc2)nn(-c2cnn(C)c2)c1=O | > 10000 | > 10000 | > 10000 | > 10000 | > 10000 | 109 | 97.8 | 95.2 | 102 | 106 | 105 | 95.9 | 96.5 | 110 | 112 | 108 | 107 | 106 | 95.5 | 116 | viability, T/C [5]: 90.2%; viability, T/C [6]: 97.4%; viability, T/C [11]: 106%; viability, T/C [12]: 97.5%; viability, T/C [17]: 113%; viability, T/C [18]: 95.8%; viability, T/C [22]: 100%; viability, T/C [23]: 106%; viability, T/C [24]: 99.2%; viability, T/C [25]: 108%; viability, T/C [26]: 117%; viability, T/C [27]: 111%; viability, T/C [28]: 97.8%; viability, T/C [29]: 104%; viability, T/C [30]: 97.1% |
| CC1COCCN1c1cc(-c2ccnn2C)c2ccnc(-c3ccn[nH]3)c2n1 (stereo not given) + CC(CO)NC(=O)c1cc(-c2ccc(Cl)cc2)nn(-c2cnn(C)c2)c1=O | 474 | 690 | 944 | 398 | 295 | 108 | 79.7 | 52.4 | 47.1 | 104 | 89.3 | 56.3 | 47 | 106 | 84.4 | 64.6 | 48.5 | 114 | 80.7 | 53.6 | viability, T/C [31]: 106%; viability, T/C [32]: 109%; viability, T/C [33]: 107%; viability, T/C [34]: 114%; viability, T/C [35]: 118%; viability, T/C [36]: 120%; viability, T/C [37]: 114%; viability, T/C [38]: 130%; viability, T/C [22]: 43.2%; viability, T/C [39]: 107%; viability, T/C [40]: 119%; viability, T/C [25]: 103%; viability, T/C [26]: 68.6%; viability, T/C [27]: 50.5%; viability, T/C [28]: 44.8% |
| COc1ccc([C@@H](O)c2cc(-c3ncnc4cc(N5CCOCC5)ccc34)c(F)cc2Cl)nn1 + CC(CO)NC(=O)c1cc(-c2ccc(Cl)cc2)nn(-c2cnn(C)c2)c1=O | 5380 | 6650 | 7720 | > 10000 | > 10000 | 98 | 105 | 92.9 | 69.7 | 110 | 108 | 99.9 | 69.5 | 104 | 117 | 108 | 91.1 | 113 | 112 | 105 | viability, T/C [5]: 61%; viability, T/C [6]: 41%; viability, T/C [11]: 58.7%; viability, T/C [12]: 45%; viability, T/C [17]: 61.9%; viability, T/C [18]: 46.4%; viability, T/C [22]: 85.3%; viability, T/C [23]: 64.3%; viability, T/C [24]: 51.7%; viability, T/C [25]: 113%; viability, T/C [26]: 110%; viability, T/C [27]: 109%; viability, T/C [28]: 82%; viability, T/C [29]: 62.4%; viability, T/C [30]: 53.2% |
| COc1cccc2c1C(=O)c1c(O)c3c(c(O)c1C2=O)CC(O)(C(=O)CO)CC3OC1CC(N)C(O)C(C)O1 (stereo not given) + Cc1ccccc1N=Nc1ccc(NC(=O)c2ccnn2C)c(C)c1 | 423 | 416 | 519 | 489 | 493 | 83.7 | 78 | 60.2 | 20.7 | 82.7 | 77.9 | 59.9 | 19.2 | 85.7 | 93.8 | 70.9 | 21.4 | 83.2 | 79.9 | 68.3 | viability, T/C [5]: 2.13%; viability, T/C [6]: 2.2%; viability, T/C [11]: 3.1%; viability, T/C [12]: 3.13%; viability, T/C [17]: 3.42%; viability, T/C [18]: 2.49%; viability, T/C [22]: 20.1%; viability, T/C [23]: 4.16%; viability, T/C [24]: 1.64%; viability, T/C [25]: 79.2%; viability, T/C [26]: 85.7%; viability, T/C [27]: 70.2%; viability, T/C [28]: 17.2%; viability, T/C [29]: 2.04%; viability, T/C [30]: 2.28% |
| Nc1ncn(C2CC(O)C(CO)O2)c(=O)n1 (stereo not given) + Cc1ccccc1N=Nc1ccc(NC(=O)c2ccnn2C)c(C)c1 | > 1000 | > 1000 | > 1000 | > 1000 | > 1000 | 90.4 | 84.7 | 85.1 | 77.4 | 85.9 | 89.6 | 78.7 | 74.1 | 95.1 | 92.3 | 89.2 | 78.1 | 81 | 79.6 | 73 | viability, T/C [31]: 95.9%; viability, T/C [32]: 95.5%; viability, T/C [33]: 108%; viability, T/C [34]: 98.8%; viability, T/C [35]: 98.5%; viability, T/C [36]: 97.7%; viability, T/C [37]: 86.7%; viability, T/C [38]: 81.6%; viability, T/C [22]: 82.8%; viability, T/C [39]: 85.4%; viability, T/C [40]: 77.9%; viability, T/C [25]: 71.2%; viability, T/C [26]: 72.4%; viability, T/C [27]: 77.6%; viability, T/C [28]: 75.3% |
